Consider two compounds from patent publication US7186728B2, “Methylene-4-azasteroids” (Schering AG, priority 2001, dated 2007).

For the assay, the system named is action of testosterone propionate (TP) on the growth of the seminal vesicle and prostate. Put plainly: Antiandrogenic activity: inhibition of testosterone propionate (TP) action on accessory genital gland growth in castrated immature male rats. The format is in vivo, rat. The following applies: for Effects of testosterone propionate, TP, on the prostate and seminal vesicle (in words): castrated immature male rats, TP + compound; for Inhibition of the action of testosterone propionate (TP) on the growth of the prostate / Inhibition of the action of testosterone propionate (TP) on the growth of the seminal vesicle: sexually immature castrated male rats, TP 0.1 mg/animal/day s.c. + 5α-reductase inhibitor 1 mg/animal/day s.c., 7 days, difference vehicle controls and TP controls = 100%. The procedure:
Evaluation of antiandrogenic activity of the compounds of the invention was performed in castrated male rats (see FIGS. 1 to 5/table). Castrated immature male rats were treated for 7 days with testosterone propionate (TP) and the substances of the invention (0.1 mg of TP alone and/or 1 mg of 5α-reductase inhibitor/animal/day, s.s., n=5–10/group). The treatment with TP caused a severe increase in weight of the accessory genital glands (prostate and seminal vesicle). In the animals treated with the vehicle and with 5α-reductase inhibitor alone, the weights of the examined organs remained at low values. The substances of the invention exerted an inhibitory effect in the test systems selected. […] [table]

`CN1C(=O)CC[C@@H]2C3CC[C@]4(C)/C(=C/Cl)CCC4C3CC[C@H]21` (stereo partly drawn) [J 1879]: the “Effects of testosterone propionate, TP, on the prostate and seminal vesicle (in words)” value is on record as “appreciably reduced”; the “Inhibition of the action of testosterone propionate (TP) on the growth of the prostate” value worked out at 34%; the “Inhibition of the action of testosterone propionate (TP) on the growth of the seminal vesicle” value worked out at 25%.
On to `CN1C(=O)CC[C@]2(C)C3CC[C@]4(C)/C(=C/Cl)CCC4C3CC[C@@H]12` (stereo partly drawn) [J 1924], for which the “Effects of testosterone propionate, TP, on the prostate and seminal vesicle (in words)” value is “appreciably reduced”; the “Inhibition of the action of testosterone propionate (TP) on the growth of the prostate” value worked out at 39%; the “Inhibition of the action of testosterone propionate (TP) on the growth of the seminal vesicle” value is listed as 41%.
